# Assay results as given in ChEMBL document CHEMBL3885881, “DrugMatrix”.
# Species: Rattus norvegicus
# Assay: DrugMatrix - Regimen: Daily Repeat
# Format: toxicity, organism-based, Sprague-Dawley
# Parameters: regimen Daily Repeat, gender Male, age 6-8 weeks
# Details: in vivo, ip, 0 mg/kg, route intraperitoneal, dose level Control, […]; for ABSOLUTE BASOPHIL / ABSOLUTE EOSINOPHIL / ABSOLUTE LYMPHOCYTE / ABSOLUTE MONOCYTE / ABSOLUTE SEGMENTED NEUTROPHIL / BASOPHIL / EOSINOPHIL / ERYTHROCYTE COUNT / HEMATOCRIT / HEMOGLOBIN / LEUKOCYTE COUNT / LYMPHOCYTE / MEAN CORPUSCULAR HEMOGLOBIN / MEAN CORPUSCULAR HEMOGLOBIN CONCENTRATION / MEAN CORPUSCULAR VOLUME / MONOCYTE / NEUTROPHIL / NUCLEATED RED BLOOD CELLS / PLATELET COUNT: tissue Blood; for ALANINE AMINOTRANSFERASE / ALBUMIN / ALKALINE PHOSPHATASE / ASPARTATE AMINOTRANSFERASE / BLOOD UREA NITROGEN / CARBON DIOXIDE / CHLORIDE / CHOLESTEROL / CREATININE / GLUCOSE / LACTATE DEHYDROGENASE / LIPASE / PHOSPHORUS / POTASSIUM / SODIUM / TOTAL BILIRUBIN / TOTAL PROTEIN / URIC ACID: tissue Plasma
structure (smiles),measurement,setting,value
ClC(Cl)=C(Cl)C(Cl)=C(Cl)Cl [HEXACHLOROBUTADIENE],ABSOLUTE BASOPHIL,"72 h, time 3 day",0 CELLS/uL
same,ABSOLUTE EOSINOPHIL,"72 h, time 3 day",135.5 CELLS/uL
same,ABSOLUTE LYMPHOCYTE,"72 h, time 3 day",9030.67 CELLS/uL
same,ABSOLUTE MONOCYTE,"72 h, time 3 day",286.5 CELLS/uL
same,ABSOLUTE SEGMENTED NEUTROPHIL,"72 h, time 3 day",1330.67 CELLS/uL
same,BASOPHIL,"72 h, time 3 day",0%
same,EOSINOPHIL,"72 h, time 3 day",1.17%
same,ERYTHROCYTE COUNT,"72 h, time 3 day",5.54 x10E6/uL
same,HEMATOCRIT,"72 h, time 3 day",35.2%
same,HEMOGLOBIN,"72 h, time 3 day",12.65 G/DL
same,LEUKOCYTE COUNT,"72 h, time 3 day",10.78 x10E3/uL
same,LYMPHOCYTE,"72 h, time 3 day",83.83%
same,MEAN CORPUSCULAR HEMOGLOBIN,"72 h, time 3 day",22.87 pg
same,MEAN CORPUSCULAR HEMOGLOBIN CONCENTRATION,"72 h, time 3 day",35.98 G/DL
same,MEAN CORPUSCULAR VOLUME,"72 h, time 3 day",63.7 fL
same,MONOCYTE,"72 h, time 3 day",2.5%
same,NEUTROPHIL,"72 h, time 3 day",12.5%
same,NUCLEATED RED BLOOD CELLS,"72 h, time 3 day",0 /100WBC
same,PLATELET COUNT,"72 h, time 3 day",853.5 x10E3/uL
same,ALANINE AMINOTRANSFERASE,"72 h, time 3 day",45.83 u/L
same,ALBUMIN,"72 h, time 3 day",4.22 G/DL
same,ALKALINE PHOSPHATASE,"72 h, time 3 day",344.5 u/L
same,ASPARTATE AMINOTRANSFERASE,"72 h, time 3 day",85.33 u/L
same,BLOOD UREA NITROGEN,"72 h, time 3 day",16.17 mg/dL
same,CARBON DIOXIDE,"72 h, time 3 day",33.33 mmol/L
same,CHLORIDE,"72 h, time 3 day",101.33 MEQ/L
same,CHOLESTEROL,"72 h, time 3 day",73.33 mg/dL
same,CREATININE,"72 h, time 3 day",0.19 mg/dL
same,GLUCOSE,"72 h, time 3 day",157.67 mg/dL
same,LACTATE DEHYDROGENASE,"72 h, time 3 day",160.33 u/L
same,LIPASE,"72 h, time 3 day",9.83 u/L
same,PHOSPHORUS,"72 h, time 3 day",11.4 mg/dL
same,POTASSIUM,"72 h, time 3 day",6.1 MEQ/L
same,SODIUM,"72 h, time 3 day",146.25 MEQ/L
same,TOTAL BILIRUBIN,"72 h, time 3 day",0.17 mg/dL
same,TOTAL PROTEIN,"72 h, time 3 day",6.3 G/DL
same,URIC ACID,"72 h, time 3 day",1.28 mg/dL
same,ABSOLUTE BASOPHIL,"120 h, time 5 day",0 CELLS/uL
same,ABSOLUTE EOSINOPHIL,"120 h, time 5 day",134 CELLS/uL
same,ABSOLUTE LYMPHOCYTE,"120 h, time 5 day",9272.17 CELLS/uL
same,ABSOLUTE MONOCYTE,"120 h, time 5 day",286 CELLS/uL
same,ABSOLUTE SEGMENTED NEUTROPHIL,"120 h, time 5 day",1357.83 CELLS/uL
same,BASOPHIL,"120 h, time 5 day",0%
same,EOSINOPHIL,"120 h, time 5 day",1.17%
same,ERYTHROCYTE COUNT,"120 h, time 5 day",5.83 x10E6/uL
same,HEMATOCRIT,"120 h, time 5 day",36.17%
same,HEMOGLOBIN,"120 h, time 5 day",13.1 G/DL
same,LEUKOCYTE COUNT,"120 h, time 5 day",11.05 x10E3/uL
same,LYMPHOCYTE,"120 h, time 5 day",83.83%
same,MEAN CORPUSCULAR HEMOGLOBIN,"120 h, time 5 day",22.5 pg
same,MEAN CORPUSCULAR HEMOGLOBIN CONCENTRATION,"120 h, time 5 day",36.25 G/DL
same,MEAN CORPUSCULAR VOLUME,"120 h, time 5 day",62 fL
same,MONOCYTE,"120 h, time 5 day",2.67%
same,NEUTROPHIL,"120 h, time 5 day",12.33%
same,NUCLEATED RED BLOOD CELLS,"120 h, time 5 day",0 /100WBC
same,PLATELET COUNT,"120 h, time 5 day",806.67 x10E3/uL
same,ALANINE AMINOTRANSFERASE,"120 h, time 5 day",50.83 u/L
same,ALBUMIN,"120 h, time 5 day",4.13 G/DL
same,ALKALINE PHOSPHATASE,"120 h, time 5 day",358.17 u/L
same,ASPARTATE AMINOTRANSFERASE,"120 h, time 5 day",148.83 u/L
same,BLOOD UREA NITROGEN,"120 h, time 5 day",13.83 mg/dL
same,CARBON DIOXIDE,"120 h, time 5 day",35.83 mmol/L
same,CHLORIDE,"120 h, time 5 day",99.33 MEQ/L
same,CHOLESTEROL,"120 h, time 5 day",80.5 mg/dL
same,CREATININE,"120 h, time 5 day",0.19 mg/dL
same,GLUCOSE,"120 h, time 5 day",156.33 mg/dL
same,LACTATE DEHYDROGENASE,"120 h, time 5 day",238.17 u/L
same,LIPASE,"120 h, time 5 day",9.17 u/L
same,PHOSPHORUS,"120 h, time 5 day",12.53 mg/dL
same,POTASSIUM,"120 h, time 5 day",6.34 MEQ/L
same,SODIUM,"120 h, time 5 day",145.15 MEQ/L
same,TOTAL BILIRUBIN,"120 h, time 5 day",0.18 mg/dL
same,TOTAL PROTEIN,"120 h, time 5 day",6.07 G/DL
same,URIC ACID,"120 h, time 5 day",1.3 mg/dL
same,ABSOLUTE BASOPHIL,time 14 day,0 CELLS/uL
same,ABSOLUTE EOSINOPHIL,time 14 day,56.5 CELLS/uL
same,ABSOLUTE LYMPHOCYTE,time 14 day,12701 CELLS/uL
same,ABSOLUTE MONOCYTE,time 14 day,330.33 CELLS/uL
same,ABSOLUTE SEGMENTED NEUTROPHIL,time 14 day,2428.83 CELLS/uL
same,BASOPHIL,time 14 day,0%
same,EOSINOPHIL,time 14 day,0.33%
same,ERYTHROCYTE COUNT,time 14 day,6.18 x10E6/uL
same,HEMATOCRIT,time 14 day,36.42%
same,HEMOGLOBIN,time 14 day,13.22 G/DL
same,LEUKOCYTE COUNT,time 14 day,15.52 x10E3/uL
same,LYMPHOCYTE,time 14 day,82.5%
same,MEAN CORPUSCULAR HEMOGLOBIN,time 14 day,21.38 pg
same,MEAN CORPUSCULAR HEMOGLOBIN CONCENTRATION,time 14 day,36.32 G/DL
same,MEAN CORPUSCULAR VOLUME,time 14 day,58.92 fL
same,MONOCYTE,time 14 day,2.17%
same,NEUTROPHIL,time 14 day,15%
same,NUCLEATED RED BLOOD CELLS,time 14 day,0 /100WBC
same,PLATELET COUNT,time 14 day,999 x10E3/uL
same,ALANINE AMINOTRANSFERASE,time 14 day,39.17 u/L
same,ALBUMIN,time 14 day,4.05 G/DL
same,ALKALINE PHOSPHATASE,time 14 day,275.17 u/L
same,ASPARTATE AMINOTRANSFERASE,time 14 day,84.5 u/L
same,BLOOD UREA NITROGEN,time 14 day,12 mg/dL
same,CARBON DIOXIDE,time 14 day,29.5 mmol/L
same,CHLORIDE,time 14 day,101 MEQ/L
same,CHOLESTEROL,time 14 day,73.83 mg/dL
same,CREATININE,time 14 day,0.19 mg/dL
same,GLUCOSE,time 14 day,146.5 mg/dL
same,LACTATE DEHYDROGENASE,time 14 day,285.67 u/L
same,LIPASE,time 14 day,9 u/L
same,PHOSPHORUS,time 14 day,11.67 mg/dL
same,POTASSIUM,time 14 day,6.82 MEQ/L
same,SODIUM,time 14 day,143.57 MEQ/L
same,TOTAL BILIRUBIN,time 14 day,0.13 mg/dL
same,TOTAL PROTEIN,time 14 day,6.23 G/DL
same,URIC ACID,time 14 day,1.75 mg/dL
